In series [1] the test system is CBD metabolism in human liver microsomes. Briefly: Example 1: inhibition of CBD metabolism in pooled human liver microsomes. Particulars: for IC50: read-out: HLM CYP inhibition IC50, substrate CBD, pooled HLM 0.1 mg/mL, CBD 1.64 μM, 15 minutes, n = 1; for Inhibition of CBD metabolism (in words): human liver microsomes. Background: Liver microsomes are vesicles of endoplasmic reticulum, rich in cytochrome P450 enzymes.

Series [2] has as its system CBD metabolism in human liver microsomes (CYP3A4 and CYP2C19). Briefly: in vitro.
The conditions of series [3]: cited from earlier work.
The conditions of series [4]: cited from earlier work. The source holds these as a separate data set.
The nature of series [5]: Clinical pharmacokinetics (literature data). The following applies: human, in vivo, oral.
Series [6] deals with Maximum Electroconvulsive Shock (MES) model. The following applies: MES model in mouse; cited from earlier work.
A further series has as its target T1, CYP1A2 (Homo sapiens, UniProt P05177).
T1 sequence (P05177 1-516): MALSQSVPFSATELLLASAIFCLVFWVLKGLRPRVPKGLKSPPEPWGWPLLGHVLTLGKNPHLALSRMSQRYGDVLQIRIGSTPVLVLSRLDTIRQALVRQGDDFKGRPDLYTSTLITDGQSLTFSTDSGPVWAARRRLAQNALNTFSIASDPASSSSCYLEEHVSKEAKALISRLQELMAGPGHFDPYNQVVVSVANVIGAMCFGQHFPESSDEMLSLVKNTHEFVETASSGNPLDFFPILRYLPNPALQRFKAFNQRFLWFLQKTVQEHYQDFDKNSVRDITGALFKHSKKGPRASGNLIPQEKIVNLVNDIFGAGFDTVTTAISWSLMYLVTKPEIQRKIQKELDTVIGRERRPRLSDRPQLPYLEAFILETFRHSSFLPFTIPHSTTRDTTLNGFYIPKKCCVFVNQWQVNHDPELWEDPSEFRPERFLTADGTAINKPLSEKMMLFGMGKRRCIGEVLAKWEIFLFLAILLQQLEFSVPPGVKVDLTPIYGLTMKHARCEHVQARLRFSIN
The following applies: cited from earlier work.

The next series has as its target T2, CYP2C8 (Homo sapiens, UniProt P10632).
T2 sequence (P10632 1-490): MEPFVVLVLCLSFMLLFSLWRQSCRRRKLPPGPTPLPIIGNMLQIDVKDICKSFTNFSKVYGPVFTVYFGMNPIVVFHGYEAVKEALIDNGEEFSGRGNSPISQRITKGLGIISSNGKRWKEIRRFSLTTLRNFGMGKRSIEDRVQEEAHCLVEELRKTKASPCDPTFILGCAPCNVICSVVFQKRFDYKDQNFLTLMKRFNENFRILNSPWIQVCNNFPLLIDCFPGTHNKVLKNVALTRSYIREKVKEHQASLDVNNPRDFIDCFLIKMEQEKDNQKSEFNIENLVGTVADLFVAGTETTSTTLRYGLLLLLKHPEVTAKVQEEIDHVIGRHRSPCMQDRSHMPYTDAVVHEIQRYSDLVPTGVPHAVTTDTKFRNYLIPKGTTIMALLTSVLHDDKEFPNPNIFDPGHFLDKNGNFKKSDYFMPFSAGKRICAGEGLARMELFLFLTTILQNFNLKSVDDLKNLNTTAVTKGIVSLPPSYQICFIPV
The following applies: cited from earlier work.

The target of series [7] is T3, CYP2C19 (Homo sapiens, UniProt P33261). Particulars: cited from earlier work.
T3 sequence (P33261 whole entry): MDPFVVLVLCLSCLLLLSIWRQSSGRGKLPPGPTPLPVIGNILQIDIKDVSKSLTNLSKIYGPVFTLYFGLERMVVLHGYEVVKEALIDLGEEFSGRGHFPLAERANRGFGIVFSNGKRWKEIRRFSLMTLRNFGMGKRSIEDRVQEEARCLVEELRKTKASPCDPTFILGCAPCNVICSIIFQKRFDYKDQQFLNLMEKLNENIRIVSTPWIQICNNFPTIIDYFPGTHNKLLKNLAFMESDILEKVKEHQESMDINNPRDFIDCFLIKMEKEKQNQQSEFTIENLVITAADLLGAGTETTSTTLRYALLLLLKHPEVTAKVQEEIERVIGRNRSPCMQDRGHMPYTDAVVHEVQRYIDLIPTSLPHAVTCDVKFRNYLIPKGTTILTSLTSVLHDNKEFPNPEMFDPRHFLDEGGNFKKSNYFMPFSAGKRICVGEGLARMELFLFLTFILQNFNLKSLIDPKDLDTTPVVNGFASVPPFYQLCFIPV
Another series deals with CYP2D6 (Homo sapiens, UniProt P10635). Kind of series: biochemical.
CYP2D6, sequence (P10635 whole entry): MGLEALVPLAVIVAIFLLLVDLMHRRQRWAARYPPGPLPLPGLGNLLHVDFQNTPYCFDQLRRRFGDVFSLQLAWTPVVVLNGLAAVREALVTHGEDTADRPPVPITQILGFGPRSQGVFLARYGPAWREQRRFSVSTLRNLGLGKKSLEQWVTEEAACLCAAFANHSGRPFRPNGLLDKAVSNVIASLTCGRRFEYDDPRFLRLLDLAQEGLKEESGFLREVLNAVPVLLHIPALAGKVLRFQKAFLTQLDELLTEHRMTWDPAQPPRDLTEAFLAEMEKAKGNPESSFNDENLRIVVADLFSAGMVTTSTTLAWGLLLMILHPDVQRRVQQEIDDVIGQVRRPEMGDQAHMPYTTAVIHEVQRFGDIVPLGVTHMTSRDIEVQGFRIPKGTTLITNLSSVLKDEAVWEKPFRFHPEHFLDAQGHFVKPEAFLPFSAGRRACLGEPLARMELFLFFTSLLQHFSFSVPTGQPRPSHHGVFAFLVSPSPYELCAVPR
Series [8] has as its target T3, CYP2C19.

Read-outs that look alike come from different tables or passages of the source.

This is an account of results in patent publication US20220401383A1 (SHINKEI THERAPEUTICS, INC., priority 2019, published 2022).

The term IC50 denotes the midpoint of a concentration-inhibition curve. Broadly, the bioavailability is dose-corrected exposure relative to a reference, in per cent. Read a high bioavailability as good availability.

Experimental for CYP2D6: Incubation mixtures were prepared with the following:
(a) potassium phosphate buffer;
(b) 0.1 mg/mL microsomal protein;
(c) isoform-specific probe substrates;
(d) specific concentrations of the test compounds, blank solvent, or positive controls (isoform-specific inhibitors); and
(e) an NADPH-regenerating cofactor solution.
Upon completion of the incubation, the reactions were quenched with an acetonitrile solution containing an internal standard. The samples were processed and analyzed by LC-MS/MS to monitor for substrate metabolite formation. The enzyme activity in the presence of the compounds were normalized with the enzyme activity in the absence of the compounds and expressed as a percentage of activity. The inhibitory potential (IC50) of the compounds were determined using nonlinear regression of percentage of activity versus compound concentration.

In the case of `COc1ccc2[nH]c(S(=O)(=O)Cc3ncc(C)c(OC)c3C)nc2c1` [Omeprazole Sulphone], the IC50 in series [1] is greater than 33 µM.
Take `CNCCC(Oc1ccc(C(F)(F)F)cc1)c1ccccc1` (stereo not drawn) [Fluoxetine]: the IC50 at 15 min in [2] was greater than 33 µM. Also, in series [1], the “Inhibition of CBD metabolism (in words)” value is recorded as “unable to inhibit metabolism of CBD”.
`COc1ccc2[nH]c([S+]([O-])Cc3ncc(C)c(OC)c3C)nc2c1` (stereo not drawn) [Omeprazole] showed an IC50 at 15 min in [2] greater than 33 µM.
Turning to `C=C(C)[C@@H]1CCC(C)=C[C@H]1c1c(O)cc(CCCCC)cc1O` [CBD, cannabidiol], in series [3] (after 1500 mg CBD dose), the “Share of the total drug material measured in systemic circulation” value is 2%. Besides, the “CBD AUC” value in series [3] (single dose 200 mg) is 499 ng·h/mL; in [3] (single dose 750 mg) it was 1070 ng·h/mL; in series [3] (single dose 1500 mg), 1444 ng·h/mL; in series [3] (single dose 3000 mg), 2669 ng·h/mL; in series [3] (single dose 4500 mg) it was 3215 ng·h/mL; in series [3] (single dose 6000 mg), 3696 ng·h/mL. The “Log P (partition coefficient)” value in series [4] is 6.1. Moreover, the bioavailability in series [5] (200 mg) turned out to be 100%; in series [5] (750 mg), 57%; in series [5] (1500 mg), 39%; in series [5] (3000 mg), 36%; in series [5] (4500 mg), 29%; in series [5] (6000 mg), 25%.
Turning to `C=C(C)[C@@H]1CCC(CO)=C[C@H]1c1c(O)cc(CCCCC)cc1O` [7-OH-CBD], in series [6], the Anticonvulsant effect result is “anticonvulsant effect similar to CBD”.
As to `Cc1c(OCC(F)(F)F)ccnc1C[S+]([O-])c1nc2ccccc2[nH]1` (stereo not drawn) [Lansoprazole], the IC50 at 15 min in series [2] was 20 µM. In addition, the “Inhibition of CBD metabolism (in words)” value in [1] was “effective inhibitors of CBD metabolism”.
As to `C/C(=C\COc1c2ccoc2cc2oc(=O)ccc12)CCC(O)C(C)(C)O` (stereo not drawn) [6,7-dihydroxybergamottin], in series [1], the “Inhibition of CBD metabolism (in words)” value was “effective inhibitors of CBD metabolism” and the IC50 amounted to 23.3 µM.
For `CC(C)c1nc(CN(C)C(=O)N[C@@H](CCN2CCOCC2)C(=O)N[C@H](CC[C@H](Cc2ccccc2)NC(=O)OCc2cncs2)Cc2ccccc2)cs1` [Cobicistat], the IC50 on CYP1A2 was greater than 25 µM; at CYP2C8, greater than 25 µM; at CYP2C19 [7], greater than 25 µM; against CYP2D6 it was 0.479 µM; on CYP2C19 [8], 0.331 µM. Also, the “Inhibition of CBD metabolism (in words)” value in [1] is given as “strong inhibitor of CBD metabolism”.
`CC(C)=CCC/C(C)=C/COc1c2ccoc2cc2oc(=O)ccc12` [Bergamottin] gave an IC50 at 15 min in series [2] greater than 33 µM.
Consider `C=C(C)[C@@H]1CCC(C(=O)O)=C[C@H]1c1c(O)cc(CCCCC)cc1O` [7-COOH-CBD], for which, in series [3] (after 1500 mg CBD dose), the “Concentration of metabolite relative to CBD” value is on record as 47 fold and the “Share of the total drug material measured in systemic circulation” value was 97%. Moreover, the Anticonvulsant effect entry in [6] was “inactive”.
